In PubChem BioAssay (NCI):
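How tested: cells in 96-well plates exposed to compound for 48 hours at five concentrations. Definition used: TGI = concentration required for complete inhibition of growth.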

What was measured:
Test in all cases: NCI anticancer screen, dose series, 48 h
786-0 renal = test system: 786-0 renal
A498 renal = test system: A498 renal
A549 NSCLC = test system: A549 NSCLC
ACHN renal = test system: ACHN renal
CAKI-1 renal = test system: CAKI-1 renal
CCRF-CEM leukemia = test system: CCRF-CEM leukemia
COLO 205 colon = test system: COLO 205 colon
DLD-1 colon = test system: DLD-1 colon
DMS 273 small cell lung = test system: DMS 273 small cell lung
EKVX NSCLC = test system: EKVX NSCLC
HCC-2998 colon = test system: HCC-2998 colon
HCT-15 colon = test system: HCT-15 colon
HL-60(TB) leukemia = test system: HL-60(TB) leukemia
HOP-62 NSCLC = test system: HOP-62 NSCLC
HOP-92 NSCLC = test system: HOP-92 NSCLC
HT29 colon = test system: HT29 colon
IGROV1 ovarian = test system: IGROV1 ovarian
K-562 leukemia = test system: K-562 leukemia
KM12 colon = test system: KM12 colon
KM20L2 colon = test system: KM20L2 colon
LOX IMVI melanoma = test system: LOX IMVI melanoma
M19-MEL melanoma = test system: M19-MEL melanoma
MALME-3M melanoma = test system: MALME-3M melanoma
MOLT-4 leukemia = test system: MOLT-4 leukemia
NCI-H226 lung = test system: NCI-H226 lung
NCI-H23 lung = test system: NCI-H23 lung
NCI-H460 lung = test system: NCI-H460 lung
NCI-H522 lung = test system: NCI-H522 lung
OVCAR-3 ovarian = test system: OVCAR-3 ovarian
OVCAR-5 ovarian = test system: OVCAR-5 ovarian
OVCAR-8 ovarian = test system: OVCAR-8 ovarian
RPMI-8226 leukemia = test system: RPMI-8226 leukemia
RXF 393 renal = test system: RXF 393 renal
RXF-631 renal = test system: RXF-631 renal
SF-268 CNS = test system: SF-268 CNS
SF-295 CNS = test system: SF-295 CNS
SK-MEL-2 melanoma = test system: SK-MEL-2 melanoma
SK-MEL-28 melanoma = test system: SK-MEL-28 melanoma
SK-MEL-5 melanoma = test system: SK-MEL-5 melanoma
SK-OV-3 ovarian = test system: SK-OV-3 ovarian
SN12C renal = test system: SN12C renal
SNB-19 CNS = test system: SNB-19 CNS
SNB-75 CNS = test system: SNB-75 CNS
SNB-78 CNS = test system: SNB-78 CNS
SW-620 colon = test system: SW-620 colon
TK-10 renal = test system: TK-10 renal
U251 CNS = test system: U251 CNS
UACC-257 melanoma = test system: UACC-257 melanoma
UACC-62 melanoma = test system: UACC-62 melanoma
UO-31 renal = test system: UO-31 renal
HCT-116 colon = test system: HCT-116 colon
LXFL 529 NSCLC = test system: LXFL 529 NSCLC
M14 melanoma = test system: M14 melanoma
OVCAR-4 ovarian = test system: OVCAR-4 ovarian
SF-539 CNS = test system: SF-539 CNS
SR leukemia = test system: SR leukemia
XF 498 CNS = test system: XF 498 CNS
BT-549 breast = test system: BT-549 breast
DMS 114 small cell lung = test system: DMS 114 small cell lung
DU-145 prostate = test system: DU-145 prostate
HOP-18 NSCLC = test system: HOP-18 NSCLC
HS 578T breast = test system: HS 578T breast
MCF7 breast = test system: MCF7 breast
MDA-MB-231 breast = test system: MDA-MB-231 breast
MDA-MB-435 = test system: MDA-MB-435
MDA-N = test system: MDA-N
NCI/ADR-RES ovarian = test system: NCI/ADR-RES ovarian
PC-3 prostate = test system: PC-3 prostate
T-47D breast = test system: T-47D breast

O=C(c1ccc(Cl)cc1)c1ccc(OCCSCCCCCCCCCCSCCOc2ccc(C(=O)c3ccc(Cl)cc3)cc2)cc1
TGI (786-0 renal): > 100 µM | TGI (A498 renal): > 100 µM | TGI (A549 NSCLC): > 100 µM | TGI (ACHN renal): > 100 µM | TGI (CAKI-1 renal): > 100 µM | TGI (CCRF-CEM leukemia): > 100 µM | TGI (COLO 205 colon): > 100 µM | TGI (DLD-1 colon): > 100 µM | TGI (DMS 273 small cell lung): > 100 µM | TGI (EKVX NSCLC): > 100 µM | TGI (HCC-2998 colon): > 100 µM | TGI (HCT-15 colon): > 100 µM | TGI (HL-60(TB) leukemia): > 100 µM | TGI (HOP-62 NSCLC): > 100 µM | TGI (HOP-92 NSCLC): > 100 µM | TGI (HT29 colon): > 100 µM | TGI (IGROV1 ovarian): > 100 µM | TGI (K-562 leukemia): > 100 µM | TGI (KM12 colon): > 100 µM | TGI (KM20L2 colon): > 100 µM | TGI (LOX IMVI melanoma): > 100 µM | TGI (M19-MEL melanoma): > 100 µM | TGI (MALME-3M melanoma): > 100 µM | TGI (MOLT-4 leukemia): > 100 µM | TGI (NCI-H226 lung): > 100 µM | TGI (NCI-H23 lung): > 100 µM | TGI (NCI-H460 lung): > 100 µM | TGI (NCI-H522 lung): > 100 µM | TGI (OVCAR-3 ovarian): > 100 µM | TGI (OVCAR-5 ovarian): > 100 µM | TGI (OVCAR-8 ovarian): > 100 µM | TGI (RPMI-8226 leukemia): > 100 µM | TGI (RXF 393 renal): > 100 µM | TGI (RXF-631 renal): > 100 µM | TGI (SF-268 CNS): > 100 µM | TGI (SF-295 CNS): > 100 µM | TGI (SK-MEL-2 melanoma): > 100 µM | TGI (SK-MEL-28 melanoma): > 100 µM | TGI (SK-MEL-5 melanoma): > 100 µM | TGI (SK-OV-3 ovarian): > 100 µM | TGI (SN12C renal): > 100 µM | TGI (SNB-19 CNS): > 100 µM | TGI (SNB-75 CNS): > 100 µM | TGI (SNB-78 CNS): > 100 µM | TGI (SW-620 colon): > 100 µM | TGI (TK-10 renal): > 100 µM | TGI (U251 CNS): > 100 µM | TGI (UACC-257 melanoma): > 100 µM | TGI (UACC-62 melanoma): > 100 µM | TGI (UO-31 renal): > 100 µM

O=C(NCc1ccncc1)C1COc2cc(-c3cc(=O)c4ccccc4o3)ccc2O1 (stereo unspecified)
TGI (786-0 renal): > 100 µM | TGI (A549 NSCLC): > 100 µM | TGI (ACHN renal): > 100 µM | TGI (CCRF-CEM leukemia): > 100 µM | TGI (DLD-1 colon): > 100 µM | TGI (EKVX NSCLC): > 100 µM | TGI (HCC-2998 colon): > 100 µM | TGI (HCT-116 colon): > 100 µM | TGI (HCT-15 colon): > 100 µM | TGI (HL-60(TB) leukemia): > 100 µM | TGI (HOP-62 NSCLC): > 100 µM | TGI (HOP-92 NSCLC): > 100 µM | TGI (HT29 colon): > 100 µM | TGI (IGROV1 ovarian): > 100 µM | TGI (K-562 leukemia): > 100 µM | TGI (KM12 colon): > 100 µM | TGI (KM20L2 colon): > 100 µM | TGI (LOX IMVI melanoma): > 100 µM | TGI (LXFL 529 NSCLC): > 100 µM | TGI (M14 melanoma): > 100 µM | TGI (M19-MEL melanoma): > 100 µM | TGI (MALME-3M melanoma): > 100 µM | TGI (MOLT-4 leukemia): > 100 µM | TGI (NCI-H23 lung): > 100 µM | TGI (NCI-H460 lung): > 100 µM | TGI (NCI-H522 lung): > 100 µM | TGI (OVCAR-3 ovarian): > 100 µM | TGI (OVCAR-4 ovarian): > 100 µM | TGI (OVCAR-5 ovarian): > 100 µM | TGI (OVCAR-8 ovarian): > 100 µM | TGI (RXF 393 renal): > 100 µM | TGI (SF-295 CNS): > 100 µM | TGI (SF-539 CNS): > 100 µM | TGI (SK-MEL-2 melanoma): > 100 µM | TGI (SK-MEL-28 melanoma): > 100 µM | TGI (SK-MEL-5 melanoma): > 100 µM | TGI (SK-OV-3 ovarian): > 100 µM | TGI (SN12C renal): > 100 µM | TGI (SNB-75 CNS): > 100 µM | TGI (SNB-78 CNS): > 100 µM | TGI (SR leukemia): > 100 µM | TGI (SW-620 colon): > 100 µM | TGI (TK-10 renal): > 100 µM | TGI (U251 CNS): > 100 µM | TGI (UACC-257 melanoma): > 100 µM | TGI (UACC-62 melanoma): > 100 µM | TGI (UO-31 renal): > 100 µM | TGI (XF 498 CNS): > 100 µM

CS(=O)(=O)OCCN(CCOS(C)(=O)=O)c1ccc(C=O)cc1
TGI (786-0 renal): 7.86 µM | TGI (A498 renal): 4.43 µM | TGI (A549 NSCLC): 35.8 µM | TGI (ACHN renal): 2.69 µM | TGI (BT-549 breast): > 69.8 µM | TGI (CAKI-1 renal): 2.08 µM | TGI (CCRF-CEM leukemia): 46.2 µM | TGI (COLO 205 colon): 9.58 µM | TGI (DLD-1 colon): > 84 µM | TGI (DMS 114 small cell lung): 28.2 µM | TGI (DMS 273 small cell lung): 13.5 µM | TGI (DU-145 prostate): 7.17 µM | TGI (EKVX NSCLC): 25.4 µM | TGI (HCC-2998 colon): 8.36 µM | TGI (HCT-116 colon): > 100 µM | TGI (HCT-15 colon): 47.4 µM | TGI (HL-60(TB) leukemia): 35.4 µM | TGI (HOP-18 NSCLC): 48.8 µM | TGI (HOP-62 NSCLC): 24 µM | TGI (HOP-92 NSCLC): 44.5 µM | TGI (HS 578T breast): 58 µM | TGI (HT29 colon): 57.9 µM | TGI (IGROV1 ovarian): 43.3 µM | TGI (K-562 leukemia): > 100 µM | TGI (KM12 colon): 29.5 µM | TGI (KM20L2 colon): 17.8 µM | TGI (LOX IMVI melanoma): 21.1 µM | TGI (LXFL 529 NSCLC): 47.4 µM | TGI (M14 melanoma): 30.4 µM | TGI (M19-MEL melanoma): 30.2 µM | TGI (MALME-3M melanoma): 26.7 µM | TGI (MCF7 breast): > 75.9 µM | TGI (MDA-MB-231 breast): 67.6 µM | TGI (MDA-MB-435): 24.6 µM | TGI (MDA-N): 27.2 µM | TGI (MOLT-4 leukemia): 4.84 µM | TGI (NCI-H226 lung): 13.4 µM | TGI (NCI-H23 lung): 12.6 µM | TGI (NCI-H460 lung): 3.36 µM | TGI (NCI-H522 lung): 0.553 µM | TGI (NCI/ADR-RES ovarian): > 80.8 µM | TGI (OVCAR-3 ovarian): 28.5 µM | TGI (OVCAR-4 ovarian): 37.6 µM | TGI (OVCAR-5 ovarian): 14.4 µM | TGI (OVCAR-8 ovarian): 32.4 µM | TGI (PC-3 prostate): 86 µM | TGI (RPMI-8226 leukemia): 75.4 µM | TGI (RXF 393 renal): 1.72 µM | TGI (SF-268 CNS): 43.5 µM | TGI (SF-295 CNS): 25.9 µM | TGI (SF-539 CNS): 17.4 µM | TGI (SK-MEL-2 melanoma): 42.8 µM | TGI (SK-MEL-28 melanoma): 52.6 µM | TGI (SK-MEL-5 melanoma): 29.1 µM | TGI (SK-OV-3 ovarian): 7.18 µM | TGI (SN12C renal): 41.3 µM | TGI (SNB-19 CNS): 65.5 µM | TGI (SNB-75 CNS): 13.1 µM | TGI (SNB-78 CNS): > 100 µM | TGI (SR leukemia): 14.7 µM | TGI (SW-620 colon): 68.8 µM | TGI (T-47D breast): > 71.6 µM | TGI (TK-10 renal): 17 µM | TGI (U251 CNS): 45.7 µM | TGI (UACC-257 melanoma): 39.2 µM | TGI (UACC-62 melanoma): 14.5 µM | TGI (UO-31 renal): 3.09 µM | TGI (XF 498 CNS): 5.85 µM
